The results in this text go back to patent US10822342B2, “Pyrazolopyrimidine derivatives as NIK inhibitors” (Janssen Pharmaceutica NV, priority 2014, dated 2020).

Experiment [1] concerns LP-1 cells. The experiment in a line: Antiproliferative activity on LP-1 cells (CellTiter-Glo). The note with it: Homo sapiens, 72 hr treatment, averaged values. Format: cell-based. How it is done:
(§1) Determination of Antiproliferative Activity on LP-1, L-363 and JJN-3 Cells
(§2) All compounds tested were dissolved in DMSO and further dilutions were made in culture medium. Final DMSO concentration was 0.3% (v/v) in cell proliferation assays. Viability was assessed using CellTiter-Glo cell viability assay kit (Promega). The human LP-1, L-363 and JJN-3 cells (DSMZ) were cultured in RPMI 1640 medium supplemented with 2 mM L-glutamine, and 10% fetal calf serum (PAA). Cells were routinely kept as suspension cells at 37° C. in a humidified 5% CO2 atmosphere. Cells were passaged at a seeding density of 0.2×10^6/ml twice a week. Cells were seeded in black tissue culture treated 96-well plates (Perkin Elmer). Densities used for plating ranged from 2,000 to 6,000 cells per well in a total volume of 75 μl medium. After twenty four hours, drugs and/or solvents were added (25 μl) to a final volume of 100 μl. Following 72 hr of treatment plates were removed from the incubator and allowed to equilibrate to room temperature for approx 10 min. 100 μl CellTiter-Glo reagent was added to each well that was then covered (Perkin Elmer Topseal) and shaken on plate shaker for 10 min. Luminescence was measured on a HTS Topcount (Perkin Elmer). Within an experiment, the results for each treatment were the mean of 2 replicate wells. For initial screening purposes, compounds were tested using a 9 point dilution curve (serial 1:3 dilutions). For each experiment, controls (containing no drug) and a blank incubation (containing cells read at the time of compound addition) were run in parallel. The blank value was subtracted from all control and sample values. For each sample, the mean value for cell growth (in relative light units) was expressed as a percentage of the mean value for cell growth of the control.

Experiment [2] addresses Recombinant Human NF-kappaB-Inducing Kinase (NIK/MAP3K14) (Homo sapiens (Human), UniProt Q99558). The experiment in a line: Inhibition of auto-phosphorylation of recombinant human NIK/MAP3K14 activity (AlphaScreen). Format: biochemical. The note with it: GST-tagged NIK/MAP3K14 0.2 nM, 25 microM ATP, 1 h at 25° C.; averaged over all measurements on all batches; read-out: Alpha-Screen IC50. The protocol:
Inhibition of Auto-Phosphorylation of Recombinant Human NF-kappaB-Inducing Kinase (NIK/MAP3K14) Activity (AlphaScreen®)
NIK/MAP3K14 auto-phosphorylation activity was measured using the AlphaScreen® (αscreen) format (Perkin Elmer). All compounds tested were dissolved in dimethyl sulfoxide (DMSO) and further dilutions were made in assay buffer. Final DMSO concentration was 1% (v/v) in assays. Assay buffer was 50 mM Tris pH 7.5 containing 1 mM EGTA (ethylene glycol tetraacetic acid), 1 mM DTT (dithiothreitol), 0.1 mM Na3VO4, 5 mM MgCl2, 0.01% Tween® 20. Assays were carried out in 384 well Alphaplates (Perkin Elmer). Incubations consisted of compound, 25 microM Adenosine-5′-triphosphate (ATP), and 0.2 nM NIK/MAP3K14. Incubations were initiated by addition of GST-tagged NIK/MAP3K14 enzyme, carried out for 1 h at 25° C. and terminated by addition of stop buffer containing anti-phospho-IKK Ser176/180 antibody. Protein A Acceptor and Glutathione-Donor beads were added before reading using an EnVision® Multilabel Plate Reader (Perkin Elmer). Signal obtained in the wells containing blank samples was subtracted from all other wells and IC50's were determined by fitting a sigmoidal curve to % inhibition of control versus Log10 compound concentration.

For experiment [3], the system named is L-363 cells. Description: Antiproliferative activity on L-363 cells (CellTiter-Glo). It is filed as cell-based. The note with it: Homo sapiens, 72 hr treatment, averaged values. The protocol:
as §1, §2

The subject of experiment [4] is JJN-3 cells. The experiment in a line: Antiproliferative activity on JJN-3 cells (CellTiter-Glo). Format: cell-based. The note with it: Homo sapiens, 72 hr treatment, averaged values. How it is done: as §1, §2
Experiment [5] concerns P-IKKα levels in L363 cells. Description: Effect of compounds on P-IKKα levels in L363 cells. It is filed as cell-based. The note with it: Homo sapiens, L-363, BAFF stimulated, 2 hr treatment, Mesoscale sandwich immuno-assay, averaged values, read-out: IKKα Cellular IC50. The protocol: Effect of Compounds on P-IKKα Levels in L363 Cells
All compounds tested were dissolved in DMSO and further dilutions were made in culture medium. Final DMSO concentration was 1% (v/v) in cell assays. The human L363 cells (ATCC) were cultured in RPMI 1640 medium supplemented with GlutaMax and 10% fetal calf serum (PAA). Cells were routinely maintained at densities of 0.2×10^6 cells per ml—1×10^6 cells per ml at 37° C. in a humidified 5% CO2 atmosphere. Cells were passaged twice a week splitting back to obtain the low density. Cells were seeded in 96 well plates (Nunc 167008) at 2×10^6 per ml media in a volume of 75 μl per well plus 25 μl 1 μg/ml recombinant human B-cell activating factor (BAFF/BLyS/TNFSF13B). Seeded cells were incubated at 37° C. in a humidified 5% CO2 atmosphere for 24 hr. Drugs and/or solvents were added (20 μl) to a final volume of 120 μl. Following 2 hr treatment plates were removed from the incubator and cell lysis was achieved by the addition of 30 μl 5× lysis buffer followed by shaking on a plate shaker at 4° C. for 10 min. At the end of this incubation lysed cells were centrifuged at 800×g for 20 min at 4° C. and the lysate was assessed for P-IKKα levels by sandwich immuno-assay carried out in anti-rabbit antibody coated Mesoscale plates. Within an experiment, the results for each treatment were the mean of 2 replicate wells. […]

pEC50, pIC50: −log10 of the molar value.

Recombinant Human NF-kappaB-Inducing Kinase (NIK/MAP3K14), sequence (Q99558 whole entry): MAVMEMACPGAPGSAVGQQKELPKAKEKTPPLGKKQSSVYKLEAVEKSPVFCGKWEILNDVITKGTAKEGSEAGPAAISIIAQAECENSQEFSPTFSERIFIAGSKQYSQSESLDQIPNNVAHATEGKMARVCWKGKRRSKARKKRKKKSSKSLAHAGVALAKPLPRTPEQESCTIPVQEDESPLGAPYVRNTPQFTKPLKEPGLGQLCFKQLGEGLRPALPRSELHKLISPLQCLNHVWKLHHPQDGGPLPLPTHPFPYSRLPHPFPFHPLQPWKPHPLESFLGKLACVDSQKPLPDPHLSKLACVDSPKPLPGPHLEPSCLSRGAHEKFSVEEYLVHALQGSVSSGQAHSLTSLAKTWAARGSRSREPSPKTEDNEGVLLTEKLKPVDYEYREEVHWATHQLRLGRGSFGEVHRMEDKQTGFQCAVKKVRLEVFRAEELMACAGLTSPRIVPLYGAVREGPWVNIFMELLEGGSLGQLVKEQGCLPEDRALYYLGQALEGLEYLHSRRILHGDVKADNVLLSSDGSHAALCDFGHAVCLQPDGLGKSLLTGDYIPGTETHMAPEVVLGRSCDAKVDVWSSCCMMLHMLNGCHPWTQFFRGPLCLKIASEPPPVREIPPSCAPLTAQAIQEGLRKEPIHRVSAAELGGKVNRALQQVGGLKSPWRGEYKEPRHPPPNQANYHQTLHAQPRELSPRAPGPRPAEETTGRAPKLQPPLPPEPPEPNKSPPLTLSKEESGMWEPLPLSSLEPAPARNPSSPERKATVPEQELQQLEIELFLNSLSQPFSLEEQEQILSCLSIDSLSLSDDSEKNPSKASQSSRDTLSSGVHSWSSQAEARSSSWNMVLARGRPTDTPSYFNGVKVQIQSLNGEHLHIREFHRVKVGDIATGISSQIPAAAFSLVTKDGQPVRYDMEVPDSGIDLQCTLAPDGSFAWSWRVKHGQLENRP

Turning to `[2H]C([2H])([2H])C(O)(C#Cc1cc2c(-c3nc(N)nc4cn(CC)nc34)cn(C3CCN(CC)C3)c2cc1F)C([2H])([2H])[2H]` (stereo not shown) [Compound 6], the pEC50 was 7.15 in experiment [1], 7.42 in experiment [3] and 7.40 in experiment [4]. Besides, in experiment [2], the pIC50 is 7.43.
As for `CCn1cc2nc(N)nc(-c3cn(C4CN(C5CC5)C4)c4cnc(C#CC(C)(O)C5CC5)cc34)c2n1` (stereo not shown) [Compound 10], the negative-log EC50 (pEC50) in experiment [1] is 6.10; in experiment [3], 6.62; in experiment [4], 6.39. In addition, in experiment [2], the negative-log IC50 (pIC50) is 6.73.
For `CCn1cc2nc(N)nc(-c3cn(CCCOC)c4cc(F)c(C#CC(C)(O)C5CC5)cc34)c2n1` (stereo not shown) [Compound 3], the pEC50 in experiment [1] was 6.07; in experiment [3], 6.61; in experiment [4], 6.74. Moreover, the pIC50 in experiment [2] is 6.00.
`[2H]C([2H])([2H])C(O)(C#Cc1cc2c(-c3nc(N)nc4cn(CC)nc34)cn(C3CN(CC4CC4)C3)c2cn1)C([2H])([2H])[2H]` [Compound 11]: the figures for the negative logarithm of the EC50 (pEC50) in experiment [1], in experiment [3] and in experiment [4] were 5.93, 7.21 and 6.80, respectively. Moreover, the pIC50 in experiment [2] is 6.84.
The like results for `COCCCn1cc(-c2nc(N)nc3cn(C4CC4)nc23)c2cc(C#CC(C)(O)C3CC3)ncc21` (stereo not shown) [Compound 8] were, in that order, 6.40, 7.12, 7.11 and 7.42.
Consider `CCn1cc2nc(N)nc(-c3cn(CCCOC)c4cnc(C#CC(C)(O)C5CC5)cc34)c2n1` (stereo not shown) [Compound 9], for which the results for the pEC50 in experiment [1], in experiment [3] and in experiment [4] were 6.20, 6.79 and 6.66, respectively. Also, the negative logarithm of the IC50 (pIC50) in experiment [2] was 7.28.
The like results for `[2H]C([2H])([2H])C(O)(C#Cc1cc2c(-c3nc(N)nc4cn(CC)nc34)cn(C3CN(CC4CC4)C3)c2cc1F)C([2H])([2H])[2H]` [Compound 7] were, in that order, 6.69, 7.28, 7.02 and 7.22.
Regarding `[2H]C([2H])([2H])C(O)(C#Cc1cc2c(-c3nc(N)nc4cn(CC)nc34)cn(CCCOC)c2cc1F)C([2H])([2H])[2H]` [Compound 4], the negative-log EC50 (pEC50) in experiment [1] is 6.61; in experiment [3], 7.16; in experiment [4], 6.99. The pIC50 in experiment [2] was 7.19.
Take `COCCCn1cc(-c2nc(N)nc3cn(C)nc23)c2cc(C#CC(C)(C)O)ncc21` [Compound 1]: the negative-log EC50 (pEC50) in experiment [1] was 5.17; in experiment [3], 6.18; in experiment [4], 6.27. Besides, the pIC50 in experiment [2] is 7.34.
On to `[2H]C([2H])([2H])C(O)(C#Cc1cc2c(-c3nc(N)nc4cn(CC)nc34)cn(C3CN(C4CC4)C3)c2cn1)C([2H])([2H])[2H]` [Compound 12], for which the negative-log EC50 (pEC50) in experiment [1] is 6.06; in experiment [3], 6.85; in experiment [4], 6.52. Besides, in experiment [2], the pIC50 was 7.08.
`[2H]C([2H])([2H])n1cc2nc(N)nc(-c3cn(C4CCN(CC)C4)c4cc(F)c(C#CC(O)(C([2H])([2H])[2H])C([2H])([2H])[2H])cc34)c2n1` (stereo not shown) [Compound 5]: the pEC50 in experiment [1] is 6.89; in experiment [3], 7.28; in experiment [4], 7.34. Further, in experiment [2], the negative logarithm of the IC50 (pIC50) was 6.95.
As for `COCCCn1cc(-c2nc(N)nc3cn(C)nc23)c2cc(C#CC(C)(O)C3CC3)ncc21` (stereo not shown) [Compound 2], the results for the pIC50 in experiment [5] and in experiment [2] were 6.99 and 7.64, respectively. Further, the pEC50 in experiment [1] is 5.53; in experiment [3], 6.41; in experiment [4], 6.45.
